Square brackets hold non-standard residues; d marks the D form. Ends that are not written are not given here. pS = N[C@@H](COP(=O)(O)O)C(=O)O
Legend:
[1] = system: ROCKII Ser^1366 phosphorylation; experiment: Western blotting of serum-starved mouse embryonic fibroblasts stimulated with nocodazole with or without Y27632; format: cell-based
Protocol: FIGS. 6(A) and 6(B) respectively illustrate the Western blotting patterns showing (A) antibody-I and (B) antibody-II against the protein extract from normal mouse embryonic fibroblasts (MEFs) stimulated with nocodazole(10 μM) in present or absent of Y27632 (10 μM).
In addition to the above human cell experiments, the level of Ser^1366 phosphorylation of ROCKII in animal cells is also researched in the present invention.

[2] = molecular target: myc-ROCKII (Bos taurus, UniProt Q28021); experiment: in vitro kinase reaction of immunoprecipitated myc-ROCKII with [γ-32P]ATP (autophosphorylation); format: biochemical; conditions: immunoprecipitates preincubated with 100 μM Y27632; 30° C., 20 minutes
Sequence of myc-ROCKII (Q28021 6-1388): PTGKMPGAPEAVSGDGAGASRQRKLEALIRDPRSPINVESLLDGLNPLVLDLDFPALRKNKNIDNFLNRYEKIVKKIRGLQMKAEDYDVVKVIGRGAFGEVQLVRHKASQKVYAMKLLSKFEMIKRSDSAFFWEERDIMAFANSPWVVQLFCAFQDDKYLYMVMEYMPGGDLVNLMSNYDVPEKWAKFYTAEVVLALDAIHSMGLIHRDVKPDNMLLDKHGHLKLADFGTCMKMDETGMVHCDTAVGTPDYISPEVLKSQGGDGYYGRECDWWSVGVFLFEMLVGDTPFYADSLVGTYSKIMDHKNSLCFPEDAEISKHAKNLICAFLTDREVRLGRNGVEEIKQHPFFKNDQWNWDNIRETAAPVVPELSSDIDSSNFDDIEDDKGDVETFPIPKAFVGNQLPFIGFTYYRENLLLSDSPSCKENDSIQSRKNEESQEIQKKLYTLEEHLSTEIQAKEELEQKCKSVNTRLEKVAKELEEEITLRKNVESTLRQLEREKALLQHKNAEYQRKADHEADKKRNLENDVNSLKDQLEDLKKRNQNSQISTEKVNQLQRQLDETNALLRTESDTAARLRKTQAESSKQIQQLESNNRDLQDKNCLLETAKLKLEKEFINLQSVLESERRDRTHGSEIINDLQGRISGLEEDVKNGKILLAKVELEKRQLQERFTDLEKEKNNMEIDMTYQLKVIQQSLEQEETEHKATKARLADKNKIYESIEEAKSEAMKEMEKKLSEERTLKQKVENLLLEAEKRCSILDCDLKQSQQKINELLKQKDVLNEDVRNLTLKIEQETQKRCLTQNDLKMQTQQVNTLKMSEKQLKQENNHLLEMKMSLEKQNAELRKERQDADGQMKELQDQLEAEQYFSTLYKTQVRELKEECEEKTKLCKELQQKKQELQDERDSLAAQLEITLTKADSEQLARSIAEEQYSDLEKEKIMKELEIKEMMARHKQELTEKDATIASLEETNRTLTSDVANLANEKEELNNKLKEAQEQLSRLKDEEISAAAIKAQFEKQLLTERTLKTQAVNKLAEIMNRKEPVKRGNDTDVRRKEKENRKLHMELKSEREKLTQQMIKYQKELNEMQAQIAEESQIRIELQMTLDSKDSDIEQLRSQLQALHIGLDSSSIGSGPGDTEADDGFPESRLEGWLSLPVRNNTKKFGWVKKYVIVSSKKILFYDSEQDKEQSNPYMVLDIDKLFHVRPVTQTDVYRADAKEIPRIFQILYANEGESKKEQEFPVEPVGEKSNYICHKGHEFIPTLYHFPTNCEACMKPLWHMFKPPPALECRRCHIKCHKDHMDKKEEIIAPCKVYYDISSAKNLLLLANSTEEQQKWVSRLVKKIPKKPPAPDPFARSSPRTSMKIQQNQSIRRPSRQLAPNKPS
Protocol: myc-ROCKII-expressing cells were harvested in an immunoprecipitation (IP) buffer (1% NP-40, 5% glycerol, 50 mM Tris/HCl, pH 7.4, 150 mM NaCl, 1 mM PMSF (phenylmethylsulfonyl fluoride), and protease inhibitor cocktail). The lysates after pre-clearance were incubated with anti-myc antibody at 4° C. for 60 minutes, and then precipitated with protein A-agarose beads for 30 minutes. The immunoprecipitates were preincubated with or without 100 μM of Y27632 (ROCK inhibitor), which was followed by incubation with a IX kinase buffer (50 mM Tris/HCl, pH 7.4, 10 mM MgCl2, 1 mM EGTA (ethylene glycol tetraacetic acid), 0.5 mM DTT (dithiothreitol), 5 mM NaF, and 0.1 mM Na3VO4, 20 μM ATP) containing 5 μCi of [γ-^32p]ATP at 30° C. for 20 minutes. The immunoprecipitates (controls) from non-transfected cells were used backgrounds.
The myc-ROCKII protein overexpressed in HEK-293T cells was immunoprecipitated and subjected to an in vitro kinase reaction containing [γ-^32P]ATP in the presence or absence of the ROCK inhibitor Y27632.

[3] = molecular target: ROCKII Ser^1366 phosphorylation (Bos taurus, UniProt Q28021); experiment: Western blotting of Ser1366 phosphorylated myc-ROCKII from treated HEK293T cells; format: cell-based, human; conditions: Y27632 20 μM for 2 hours, probed with antibody-II
Sequence of ROCKII Ser^1366 phosphorylation (Bos taurus, UniProt Q28021) (Q28021 6-1388): as above
Protocol: myc-ROCKII-expressing cells were harvested in an immunoprecipitation (IP) buffer (1% NP-40, 5% glycerol, 50 mM Tris/HCl, pH 7.4, 150 mM NaCl, 1 mM PMSF (phenylmethylsulfonyl fluoride), and protease inhibitor cocktail). The lysates after pre-clearance were incubated with anti-myc antibody at 4° C. for 60 minutes, and then precipitated with protein A-agarose beads for 30 minutes. The immunoprecipitates were preincubated with or without 100 μM of Y27632 (ROCK inhibitor), which was followed by incubation with a IX kinase buffer (50 mM Tris/HCl, pH 7.4, 10 mM MgCl2, 1 mM EGTA (ethylene glycol tetraacetic acid), 0.5 mM DTT (dithiothreitol), 5 mM NaF, and 0.1 mM Na3VO4, 20 μM ATP) containing 5 μCi of [γ-^32p]ATP at 30° C. for 20 minutes. The immunoprecipitates (controls) from non-transfected cells were used backgrounds. The protein level of myc-ROCKII was detected by Western blotting with anti-myc antibody known by the skilled person in the art.

[4] = system: Ser^1366 phosphorylated myc-ROCKII; experiment: Western blotting with anti-pSer1366 ROCKII antibody, with peptide neutralization and λPPase treatment; format: binding; conditions: peptide 0.2 μg/ml, antibody 1 μg/ml
Protocol: FIG. 2(A) illustrates the Western blotting pattern showing anti-pSer^1366 ROCKII antibody-II against the phosphorylated ROCKII. myc-ROCKII protein is obtained with extraction after the WT or S1366A mutant myc-ROCKII expression constructs are respectively transfected into HEK-293T cells and immunoprecipitated using anti-myc antibody, and Ser^1366 phosphorylation of myc-ROCKII is probed with antibody-II (1 μg/ml) with or without the competition of phosphorylated peptide-IIa (0.2 μg/ml).
FIG. 3 illustrates the Western blotting pattern showing the signal of immunoprecipitated WT myc-ROCKII with or without λ protein phosphatase (λPPase) at 30° C. for 20 minutes treatment probed with antibody-II
(§1) myc-ROCKII-expressing cells were harvested in an immunoprecipitation (IP) buffer (1% NP-40, 5% glycerol, 50 mM Tris/HCl, pH 7.4, 150 mM NaCl, 1 mM PMSF (phenylmethylsulfonyl fluoride), and protease inhibitor cocktail). The lysates after pre-clearance were incubated with anti-myc antibody at 4° C. for 60 minutes, and then precipitated with protein A-agarose beads for 30 minutes. […] The protein level of myc-ROCKII was detected by Western blotting with anti-myc antibody known by the skilled person in the art. […]

[5] = system: ROCKII Ser^1366 phosphorylation; experiment: immunohistochemical staining of human breast tumor tissue with anti-pSer1366 ROCKII antibody and peptide competition; conditions: antibody 5 μg/ml, peptide 0.5 μg/ml
Source text: FIG. 7 illustrates the immunohistochemistry images showing RCOKII Ser^1366 phosphorylation in human breast tumor tissues. The tumor part and non-tumor part breast tissues of from two breast cancer patients are sectioned, and probed with anti-pSer^1366 ROCKII antibody in the presence of phosphorylated peptide-lib and unphosphorylated peptide-IIa. The normal rabbit IgG is the control for negative reaction, and #1 is negative for lymph node and #2 is positive for lymph node.
The tumor part and the non-tumor part of the breast tissue blocks were embedded in Tissue-Tek OCT™ compound, snap-frozen, and sectioned into 5 μm cryosections. The sections were fixed with 4% (w/v) paraformaldehyde for 15 minutes and placed in boiling citrate buffer for 10 minutes. Endogenous peroxidase activity was quenched by 3% […] for 10 minutes and this was followed by incubation with 5.5% (v/v) normal goat serum in Tris-buffer saline containing 0.1% of Triton X-100 (TBST) for blocking. Sections were subsequently incubated with primary antibody against pSer^1366 ROCKII (1:200 dilution; 5 μg/ml) in the present or absence of the phosphopeptide or non-phosphopeptide (0.5 μg/ml). […]
Next, whether ROCKII Ser^1366 phosphorylation can be detected is determined by anti-pSer^1366 ROCKII antibody-II. […]

[6] = system: Ser^1333 phosphorylated flag-ROCKI; experiment: Western blotting with anti-pSer1333 ROCKI antibody, with peptide neutralization; format: binding; conditions: peptide 0.2 μg/ml, antibody 1 μg/ml
Protocol: FIG. 2(B) illustrates the Western blotting pattern showing anti-pSer^1333 ROCKI antibody-I against the phosphorylated ROCKI. flag-ROCKI protein is obtained with extraction after the WT or S1333A mutant flag-ROCKI expression constructs are respectively transfected to […] cells and immunoprecipitated using anti-flag antibody, and Ser^1333 phosphorylation of flag-ROCKI is probed with antibody-I (1 μg/ml) with or without the competition of phosphorylated peptide-Ia (0.2 μg/ml).
as §1, with “minutes. The immunoprecipitates were preincubated with or without 100 μM of Y27632 (ROCK inhibitor), which was followed by incubation with a IX kinase buffer (50 mM Tris/HCl, pH 7.4, 10 mM MgCl2, 1 mM EGTA (ethylene glycol tetraacetic acid), 0.5 mM DTT (dithiothreitol), 5 mM NaF, and 0.1 mM Na3VO4, 20 μM ATP) containing 5 μCi of [γ-^32p]ATP at 30° C. for 20 minutes.” for “minutes.”

[7] = MEFs serum-starved 24 hours, nocodazole 10 μM

## COC(=O)Nc1nc2ccc(C(=O)c3cccs3)cc2[nH]1 [nocodazole]
[1]; [7]
  downstream phosphor-MLC signal regulated by ROCKII: markedly increased
  signal of ROCKII Ser^1366 phosphorylation: enhanced

## C[C@@H](N)[C@H]1CC[C@H](C(=O)Nc2ccncc2)CC1 [Y27632]
[2]
  phosphorylation signal of radioactively labeled ROCKII: abolished the phosphorylation signal
[1]; MEFs, nocodazole 10 μM plus Y27632 10 μM
  enhanced phosphorylation signal (ROCKII Ser^1366, phospho-MLC) induced by nocodazole: disappeared
[3]
  signal level of Ser^1366 phosphorylated myc-ROCKII: markedly decreased

## N′-DPFARSSPRTpSMK-C′ (SEQ ID NO:6) (DPFARSSPRT[pS]MK) [peptide-lib]
[4]
  neutralization of the autophosphorylated signal of anti-pSer^1366 ROCKII antibody: neutralized
[5]
  ROCKII Ser^1366 phosphorylation signal in IHC under peptide competition: blocked

## N′-RASPRTLpSTRS-C′ (SEQ ID NO:4) (RASPRTL[pS]TRS) [peptide-Ib]
[6]
  neutralization of the autophosphorylated signal of anti-pSer^1333 ROCKI antibody: neutralized

From patent publication US9017952B2, “Reagents for probing ROCKs activation” (National Yang Ming University, priority 2012, dated 2015)
